The values below are quoted from earlier work in patent US9211341B2, “Method of manufacturing a pharmaceutical composition having chelating type complex micelles” (Original BioMedicals Co., Ltd, priority 2011, dated 2015).

Consider `NCCCNCCSP(=O)(O)O` [amifostine], for which, under “after injection”, the “blood half-life (βt1/2)” value is on record as 8.8 min; the “time at which the cytoprotective effect appears” value is 5 to 10 min; the “time to reach steady state after distribution to tissues and dephosphorylation” value is on record as “about 10 minutes”. Where the note is “following injection”, the “concentration in normal cells (kidney, lung, liver, skin, bone marrow, intestine, spleen) relative to cancer cells” value is on record as 10 times. In addition, the “plasma clearance, fraction cleared” value (within 6 minutes) was “approximately 90%”.
